Data reported in patent US12180193B2, “Accelerating fibrosarcoma protein degrading compounds and associated methods of use” (Arvinas Operations, Inc., priority 2020, dated 2024).
Each block holds one molecule with its values, some of them ahead of it.

What was measured:
BRAF V600E = biological target: T1, BRAF V600E (Homo sapiens, UniProt P15056, V600E); assay: Cellular assay of target protein degradation, T-Rex 293 cells stably transfected with HA-BRAF_V600E (HA immunofluorescence, high content imaging); format: cell-based; details: T-Rex 293 HA-BRAF V600E; for DC50: half maximal degradation, read-out: BRaf V600E DC50; for Dmax: maximum degradation observed
T1 construct: expressed in transfected cells
T1 sequence (P15056 whole entry V600E): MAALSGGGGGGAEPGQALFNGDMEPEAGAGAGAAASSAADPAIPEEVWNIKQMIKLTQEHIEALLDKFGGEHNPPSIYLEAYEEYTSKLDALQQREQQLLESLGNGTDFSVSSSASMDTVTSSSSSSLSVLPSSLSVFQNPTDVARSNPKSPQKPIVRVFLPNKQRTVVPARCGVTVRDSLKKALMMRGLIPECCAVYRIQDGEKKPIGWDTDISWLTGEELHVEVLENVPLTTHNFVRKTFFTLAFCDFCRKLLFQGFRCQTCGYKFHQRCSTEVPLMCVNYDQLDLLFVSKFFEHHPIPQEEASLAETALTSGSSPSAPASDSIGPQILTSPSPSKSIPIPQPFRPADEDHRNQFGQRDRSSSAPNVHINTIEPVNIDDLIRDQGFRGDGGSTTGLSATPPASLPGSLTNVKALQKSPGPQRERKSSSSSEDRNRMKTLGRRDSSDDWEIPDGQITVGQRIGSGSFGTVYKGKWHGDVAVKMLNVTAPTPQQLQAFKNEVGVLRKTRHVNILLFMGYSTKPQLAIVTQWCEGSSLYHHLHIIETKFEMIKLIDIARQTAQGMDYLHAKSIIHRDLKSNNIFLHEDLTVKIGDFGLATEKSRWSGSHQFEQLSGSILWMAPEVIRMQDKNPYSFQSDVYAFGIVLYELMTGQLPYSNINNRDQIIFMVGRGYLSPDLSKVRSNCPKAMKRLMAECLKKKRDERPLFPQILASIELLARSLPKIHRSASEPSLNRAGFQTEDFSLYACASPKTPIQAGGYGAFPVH
Method in brief: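 HA immunofluorescence on fixed cells, imaged by high-content reader, measured loss of HA-BRAF V600E in stably transfected T-Rex 293 cells induced with 1 ng/mL doxycycline. Compounds were applied for 24 h at 37 °C (final 0.1 nM–1 μM, 0.1% DMSO); DC50 and Dmax (% of control) were reported.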

BRAF G466V = biological target: T2, BRAF G466V (Homo sapiens, UniProt P15056, G466V); assay: Cellular assay of target protein degradation, T-Rex 293 cells stably transfected with HA-BRAF G466V (HA immunofluorescence, high content imaging); format: cell-based; details: T-Rex 293 HA-BRAF G466V; for DC50: half maximal degradation, read-out: BRaf G466V DC50; for Dmax: maximum degradation observed
T2 construct: expressed in transfected cells
T2 sequence (P15056 whole entry G466V): as the sequence (P15056 whole entry V600E) above, with G466V, E600V counted along it
Method in brief: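 HA-BRAF G466V levels were read by HA immunofluorescence and high-content imaging after 24 h compound exposure (final 30 nM–3 pM, 0.1% DMSO, 37 °C). Expression was induced with 0.75 ng/mL doxycycline. Outputs: half-maximal degradation concentration (DC50) and maximal degradation (Dmax) relative to control.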

SMILES: O=C1CC[C@H](N2Cc3cc(C[C@@H](O)CN4CCC(c5ccc(-c6cnc7[nH]cc(C(=O)c8c(F)ccc(NS(=O)(=O)N9CC[C@@H](F)C9)c8F)c7c6)cc5)CC4)ccc3C2=O)C(=O)N1 [Compound 107]
DC50 (BRAF V600E): 5 to 50 nM | Dmax (BRAF V600E): 35 to 70% | DC50 (BRAF G466V): 1 to 10 nM | Dmax (BRAF G466V): 35 to 70%

SMILES: O=C1CC[C@@H](N2Cc3cc(C[C@@H](O)CN4CCC(c5ccc(-c6cnc7[nH]cc(C(=O)c8c(F)ccc(NS(=O)(=O)N9CC[C@@H](F)C9)c8F)c7c6)cc5)CC4)ccc3C2=O)C(=O)N1 [Compound 108, (3R)-N-{3-[5-(4-{1-[(2R)-3-{2-[(3R)-2,6-dioxopiperidin-3-yl]-1-oxo-2,3-dihydro-1H-isoindol-5-yl}-2-hydroxypropyl]piperidin-4-yl}phenyl)-1H-pyrrolo[2,3-b]pyridine-3-carbonyl]-2,4-difluorophenyl}-3-fluoropyrrolidine-1-sulfonamide]
DC50 (BRAF V600E): 5 to 50 nM | Dmax (BRAF V600E): 35 to 70% | DC50 (BRAF G466V): 1 to 10 nM | Dmax (BRAF G466V): > 70%

SMILES: O=C1CC[C@H](N2Cc3cc(C[C@H](O)CN4CCC(c5ccc(-c6cnc7[nH]cc(C(=O)c8c(F)ccc(NS(=O)(=O)N9CC[C@@H](F)C9)c8F)c7c6)cc5)CC4)ccc3C2=O)C(=O)N1 [Compound 109, (3R)-N-{3-[5-(4-{1-[(2S)-3-{2-[(3S)-2,6-dioxopiperidin-3-yl]-1-oxo-2,3-dihydro-1H-isoindol-5-yl}-2-hydroxypropyl]piperidin-4-yl}phenyl)-1H-pyrrolo[2,3-b]pyridine-3-carbonyl]-2,4-difluorophenyl}-3-fluoropyrrolidine-1-sulfonamide]
DC50 (BRAF V600E): 5 to 50 nM | Dmax (BRAF V600E): 35 to 70% | DC50 (BRAF G466V): 1 to 10 nM | Dmax (BRAF G466V): > 70%

SMILES: O=C1CCC(N2Cc3cc(C4CCN(C[C@H](O)Cc5ccc(-c6cnc7[nH]cc(C(=O)c8c(F)ccc(NS(=O)(=O)N9CC[C@@H](F)C9)c8F)c7c6)cc5)CC4)ccc3C2=O)C(=O)N1 (stereo partly drawn) [Compound 110, (3R)-N-[3-(5-{4-[(2R)-3-{4-[2-(2,6-dioxopiperidin-3-yl)-1-oxo-2,3-dihydro-1H-isoindol-5-yl]piperidin-1-yl}-2-hydroxypropyl]phenyl}-1H-pyrrolo[2,3-b]pyridine-3-carbonyl)-2,4-difluorophenyl]-3-fluoropyrrolidine-1-sulfonamide]
DC50 (BRAF V600E): 50 to 500 nM | Dmax (BRAF V600E): 35 to 70% | DC50 (BRAF G466V): 1 to 10 nM | Dmax (BRAF G466V): > 70%

SMILES: O=C1CCC(N2Cc3cc(N4CCC(CN5CC6(CCN(c7ccc(-c8cnc9[nH]cc(C(=O)c%10c(F)ccc(NS(=O)(=O)N%11CC[C@@H](F)C%11)c%10F)c9c8)cc7F)C6)C5)CC4)ccc3C2=O)C(=O)N1 (stereo partly drawn) [Compound 111, (3R)-N-[3-(5-{4-[2-({1-[2-(2,6-dioxopiperidin-3-yl)-1-oxo-2,3-dihydro-1H-isoindol-5-yl]piperidin-4-yl}methyl) 2,6-diazaspiro[3.4]octan-6-yl]-3-fluorophenyl}-1H-pyrrolo[2,3-b]pyridine-3-carbonyl)-2,4-difluorophenyl]-3-fluoropyrrolidine-1-sulfonamide]
DC50 (BRAF V600E): < 5 nM | Dmax (BRAF V600E): 35 to 70% | DC50 (BRAF G466V): 1 to 10 nM | Dmax (BRAF G466V): 35 to 70%

SMILES: O=C1CCC(N2Cc3cc(OCCCCN4CCN(c5ccc(-c6cnc7[nH]cc(C(=O)c8c(F)ccc(NS(=O)(=O)N9CC[C@@H](F)C9)c8F)c7c6)cc5F)CC4)ccc3C2=O)C(=O)N1 (stereo partly drawn) [Compound 113, (3R)-N-[3-(5-{4-[4-(4-{[2-(2,6-dioxopiperidin-3-yl)-1-oxo-2,3-dihydro-1H-isoindol-5-yl]oxy}butyl)piperazin-1-yl]-3-fluorophenyl}-1H-pyrrolo[2,3-b]pyridine-3-carbonyl)-2,4-difluorophenyl]-3-fluoropyrrolidine-1-sulfonamide]
DC50 (BRAF V600E): 5 to 50 nM | Dmax (BRAF V600E): 35 to 70% | DC50 (BRAF G466V): 1 to 10 nM | Dmax (BRAF G466V): > 70%

SMILES: O=C1CCC(N2Cc3cc(N4CC5(CN(CCOc6ccc(-c7cnc8[nH]cc(C(=O)c9c(F)ccc(NS(=O)(=O)N%10CC[C@@H](F)C%10)c9F)c8c7)cc6F)C5)C4)ccc3C2=O)C(=O)N1 (stereo partly drawn) [Compound 114, (3R)-N-(3-{5-[4-(2-{6-[2-(2,6-dioxopiperidin-3-yl)-1-oxo-2,3-dihydro-1H-isoindol-5-yl]-2,6-diazaspiro[3.3]heptan-2-yl}ethoxy)-3-fluorophenyl]-1H-pyrrolo[2,3-b]pyridine-3-carbonyl}-2,4-difluorophenyl)-3-fluoropyrrolidine-1-sulfonamide]
DC50 (BRAF V600E): 5 to 50 nM | Dmax (BRAF V600E): 35 to 70% | DC50 (BRAF G466V): 1 to 10 nM | Dmax (BRAF G466V): > 70%

SMILES: O=C1CCC(N2Cc3cc(N4CCN(c5cc(N6CCN(c7ccc(-c8cnc9[nH]cc(C(=O)c%10c(F)ccc(NS(=O)(=O)N%11CC[C@@H](F)C%11)c%10F)c9c8)cc7)CC6)ncn5)CC4)ccc3C2=O)C(=O)N1 (stereo partly drawn) [Compound 115, (3R)-N-[3-(5-{4-[4-(6-{4-[2-(2,6-dioxopiperidin-3-yl)-1-oxo-2,3-dihydro-1H-isoindol-5-yl]piperazin-1-yl}pyrimidin-4-yl)piperazin-1-yl]phenyl}-1H-pyrrolo[2,3-b]pyridine-3-carbonyl)-2,4-difluorophenyl]-3-fluoropyrrolidine-1-sulfonamide]
DC50 (BRAF V600E): 5 to 50 nM | Dmax (BRAF V600E): < 35% | DC50 (BRAF G466V): 1 to 10 nM | Dmax (BRAF G466V): 35 to 70%

SMILES: O=C1CCC(N2Cc3cc(N4CC5(CN(CCOc6ncc(-c7cnc8[nH]cc(C(=O)c9c(F)ccc(NS(=O)(=O)N%10CC[C@@H](F)C%10)c9F)c8c7)cn6)C5)C4)ccc3C2=O)C(=O)N1 (stereo partly drawn) [Compound 117, (3R)-N-(3-{5-[2-(2-{6-[2-(2,6-dioxopiperidin-3-yl)-1-oxo-2,3-dihydro-1H-isoindol-5-yl]-2,6-diazaspiro[3.3]heptan-2-yl}ethoxy)pyrimidin-5-yl]-1H-pyrrolo [2,3-b]pyridine-3-carbonyl}-2,4-difluorophenyl)-3-fluoropyrrolidine-1-sulfonamide]
DC50 (BRAF V600E): 50 to 500 nM | Dmax (BRAF V600E): 35 to 70% | DC50 (BRAF G466V): 1 to 10 nM | Dmax (BRAF G466V): > 70%

SMILES: O=C1CCC(N2Cc3cc(C4CCN(C[C@@H](O)Cc5ccc(-c6cnc7[nH]cc(C(=O)c8c(F)ccc(NS(=O)(=O)N9CC[C@@H](F)C9)c8F)c7c6)cc5)CC4)ccc3C2=O)C(=O)N1 (stereo partly drawn) [Compound 118, (3R)-N-[3-(5-{4-[(2S)-3-{4-[2-(2,6-dioxopiperidin-3-yl)-1-oxo-2,3-dihydro-1H-isoindol-5-yl]piperidin-1-yl}-2-hydroxypropyl]phenyl}-1H-pyrrolo[2,3-b]pyridine-3-carbonyl)-2,4-difluorophenyl]-3-fluoropyrrolidine-1-sulfonamide]
DC50 (BRAF V600E): > 500 nM | Dmax (BRAF V600E): > 70% | DC50 (BRAF G466V): 1 to 10 nM | Dmax (BRAF G466V): > 70%

Other lines, results leading:

DC50 (BRAF V600E): 5 to 50 nM | Dmax (BRAF V600E): 35 to 70% | DC50 (BRAF G466V): 1 to 10 nM | Dmax (BRAF G466V): 35 to 70%
SMILES: O=C1CC[C@H](N2Cc3cc([C@H](O)CCN4CC5(C4)CN(c4ccc(-c6cnc7[nH]cc(C(=O)c8c(F)ccc(NS(=O)(=O)N9CC[C@@H](F)C9)c8F)c7c6)cc4)C5)ccc3C2=O)C(=O)N1 [Compound 105, (3R)—N-[3-[5-[4-[6-[(3R)-3-[2-[(3S)-2,6-dioxo-3-piperidyl]-1-oxo-isoindolin-5-yl]-3-hydroxy-propyl]-2,6-diazaspiro[3.3]heptan-2-yl]phenyl]-1H-pyrrolo[2,3-b]pyridine-3-carbonyl]-2,4-difluoro-phenyl]-3-fluoro-pyrrolidine-1-sulfonamide]

DC50 (BRAF V600E): 5 to 50 nM | Dmax (BRAF V600E): 35 to 70% | DC50 (BRAF G466V): 1 to 10 nM | Dmax (BRAF G466V): > 70%
SMILES: O=C1CC[C@H](N2Cc3cc([C@@H](O)CCN4CC5(C4)CN(c4ccc(-c6cnc7[nH]cc(C(=O)c8c(F)ccc(NS(=O)(=O)N9CC[C@@H](F)C9)c8F)c7c6)cc4)C5)ccc3C2=O)C(=O)N1 [Compound 106, (3R)-N-{3-[5-(4-{6-[(3S)-3-{2-[(3S)-2,6-dioxopiperidin-3-yl]-1-oxo-2,3-dihydro-1H-isoindol-5-yl}-3-hydroxypropyl]-2,6-diazaspiro[3.3]heptan-2-yl}phenyl)-1H-pyrrolo[2,3-b]pyridine-3-carbonyl]-2,4-difluorophenyl}-3-fluoropyrrolidine-1-sulfonamide]

DC50 (BRAF V600E): 50 to 500 nM | Dmax (BRAF V600E): < 35% | DC50 (BRAF G466V): 10 to 30 nM | Dmax (BRAF G466V): 35 to 70%
SMILES: O=C1CCC(N2Cc3cc(CN4CCN(c5ccc(-c6cnc7[nH]cc(C(=O)c8c(F)ccc(NS(=O)(=O)N9CC[C@@H](F)C9)c8F)c7c6)cc5)C[C@H]4CO)ccc3C2=O)C(=O)N1 (stereo partly drawn) [Compound 112, (3R)-N-[3-(5-{4-[(3S)-4-{[2-(2,6-dioxopiperidin-3-yl)-1-oxo-2,3-dihydro-1H-isoindol-5-yl]methyl}-3-(hydroxymethyl)piperazin-1-yl]phenyl}-1H-pyrrolo [2,3-b]pyridine-3-carbonyl)-2,4-difluorophenyl]-3-fluoropyrrolidine-1-sulfonamide]

DC50 (BRAF V600E): 5 to 50 nM | Dmax (BRAF V600E): 35 to 70% | DC50 (BRAF G466V): < 1 nM | Dmax (BRAF G466V): 35 to 70%
SMILES: O=C1CC[C@@H](N2Cc3cc(C[C@H](O)CN4CCC(c5ccc(-c6cnc7[nH]cc(C(=O)c8c(F)ccc(NS(=O)(=O)N9CC[C@@H](F)C9)c8F)c7c6)cc5)CC4)ccc3C2=O)C(=O)N1 [Compound 116, (3R)-N-{3-[5-(4-{1-[(2S)-3-{2-[(3R)-2,6-dioxopiperidin-3-yl]-1-oxo-2,3-dihydro-1H-isoindol-5-yl}-2-hydroxypropyl]piperidin-4-yl}phenyl)-1H-pyrrolo[2,3-b]pyridine-3-carbonyl]-2,4-difluorophenyl}-3-fluoropyrrolidine-1-sulfonamide]
